Test results reported in patent US20130309238A1, “SIGNAL TRANSDUCTION PATHWAY MODULATION” (NEWCASTLE INNOVATION LIMITED, priority 2010, published 2013).

Legend:
[1] = test system: HDM-allergic mice; assay: Airway inflammation, mucus-producing cells and BALF cells in HDM-induced allergic airways disease; assay type: in vivo, BALB/c mice
Protocol: Mice were sensitized and challenged by exposing them intranasally to house dust mite (HDM) (50 mcg daily at day 0, 1, and 2 followed by 5×5 mcg daily from day 14 to day 17 delivered in 50 μl of sterile saline). The single dose of HDM employed in initial studies was 50 mcg/50 μl of sterile saline. Non-sensitized mice received sterile saline only. Lung tissue was stained, cells identified by morphological criteria, and quantitated by counting ten high power fields (HPFs) in each slide. […] Specifically, allergic mice were treated with a commercially available (Ambion) in-vitro validated small interfering (si)RNA directed against Midline-1 (SEQ ID NO:3) (MID1 siRNA) or a scrambled nonsense siRNA (control) following previously established protocols. BALB/c mice were anesthetised with isoflurane before being sensitised with the intranasal administration of either 50 μg House Dust Mite antigen (HDM) in 50 μl of sterile saline or 50 μl of sterile saline in control groups. This sensitisation was repeated at days 1 and 2 following initial sensitisation. On day 14 following initial sensitisation the mice were again anesthetised with isoflurane before receiving intranasal challenge with 5 μg of HDM in […] of sterile water. This challenge dosage was repeated daily from day 14 through 17. Mice received intranasal administration of maked Mid-1 siRNA or scramble control in 25 μl of saline under isoflurane anaesthesia on days 13, 15 and 17, through the period of HDM challenge. On day 18, 24 hrs after the final HDM challenge, the mice were sacrificed with an excess dose of sodium pentobarbitone administered intraperitoneally (200 μl total volume).

[2] = test system: CCL20; assay: CCL20 expression/release in airway wall or lung homogenates of HDM-allergic mice; assay type: in vivo, BALB/c mice; details: HDM-sensitized and challenged mice
Protocol: Total RNA was isolated with mirVana m/miRNA Isolation kit (Ambion) from lower airway tissue that was separated by blunt dissection allowing effective separation of the airway wall from the parenchyma (Mattes, 2009). quantitative RT-PCR (qRT-PCR) was performed with SYBR® Green (Invitrogen) using an Eppendorf […] (threshold cycle) quantification was performed using Eppendorf Realplex analysis software 2.2. Mouse mRNA expression was normalised to HPRT, human mRNA to GAPDH. Fold change was calculated using delta delta CT values relative to control groups.

[3] = test system: ovalbumin-challenged mice; details: OVA 3x a week for 3 months, AAL(S) daily
Text: (§1) The inventors then determined the ability of AAL(S) to protect against airway fibrosis in two mouse models, a chronic ovalbumin model of allergic airways disease and an acute bleomycin-induced fibrosis model.
Mice received ovalbumin (OVA)+alumn IP at day 0 and 2 weeks. Mice then received OVA 3× a week for 3 months. AAL treated mice received AAL(S) daily throughout the 3 month challenge period.

[4] = in vivo; cited from earlier work
[5] = test system: peribronchial lymph node cells; assay: Cytokine release from in-vitro HDM-stimulated peribronchial lymph node cells; assay type: in vivo, BALB/c mice; details: HDM-sensitized and challenged mice
Protocol: Peribronchial lymph node cells were excised, filtered, and cultured in the presence or absence of 50 mcg/ml HDM (optimal concentration) for 6 days. IL-13, IL-5, and IFN-γ were determined by ELISA (BD Biosciences Pharmingen).

[6] = biological target: sphingosine kinase 2 (Homo sapiens, UniProt Q9NRA0); details: Don et al., 2007; cited from earlier work
[7] = test system: sphingosine-1-phosphate receptors; details: Don et al., 2007; cited from earlier work
[8] = biological target: PP2A (Mus musculus, UniProt P63330); details: HDM-allergic mice, daily intranasal treatment
Protocol: PP2a activity was measured by R&D Systems PP2A DuoSet IC activity assay kit according to the manufacturer's instructions. This was performed on homogenized mouse lungs and harvested BEAS-2B cells.

[9] = biological target: T1, PP2A (Homo sapiens, UniProt P67775); assay: PP2A activity in HDM-stimulated human bronchial epithelial cells (BEAS-2B); assay type: cell-based; details: BEAS-2B + crude HDM extract, 24 hours; salbutamol 0.1, 1, 10 μM; mitoxantrone analogue 1, 5, 25 μg/ml; AAL(s) 0.5, 2 μM
T1 construct: endogenous in cells; host or cells: BEAS-2B
Protocol: • Activation of PP2A The inventors have examined the ability of known PP2A agonists to influence PP2A activity in human bronchial epithelial cells stimulated with crude house dust mite extract. Immortalised human bronchial epithelial cells (BEAS-2B) were seeded at 1×10^5 cells/well in 12-well tissue culture plates and allowed to reach 80% confluency. Cells were then treated with either salbutamol, a mitoxantrone analogue, or AAL(s), at a range of tolerable concentrations (0.1, 1 and 10 μM for salbutamol; 1, 5 and 25 μg/ml for the nitoxantrone analaogue; and 0.5 and 2 μM for AAL(s)). Simultaneously, cells were stimulated with crude House Dust Mite (HDM) extract and left for 24 hours. Cells were then collected, washed, lysed, and PP2A activity assayed (R&D Systems), measuring phosphatase activity when fed a synthetic substrate. PP2A activity was reduced upon HDM stimulation compared to the non-stimulated media only group (representing physiologically normal activity levels).

[10] = test system: bleomycin-treated mice; details: bleomycin intratracheally, sacrificed after 23 days; AAL(S) daily
Text: as §1
In the bleomycin model, mice received bleomycin intratracheally and were sacrificed after 23 days. AAL(S) treated mice received AAL(S) daily post bleomycin administration.

[11] = test system: HDM-allergic mice; assay: AHR measurement in house dust mite (HDM)-induced allergic airways disease; assay type: in vivo, BALB/c mice; details: HDM-sensitized and challenged mice; treatment during allergen challenge
Protocol: Mice were sensitized and challenged by exposing them intranasally to house dust mite (HDM) (50 mcg daily at day 0, 1, and 2 followed by 5×5 mcg daily from day 14 to day 17 delivered in 50 μl of sterile saline). The single dose of HDM employed in initial studies was 50 mcg/50 μl of sterile saline. Non-sensitized mice received sterile saline only.
AHR was assessed invasively in separate groups of anesthetized mice by measurement of total lung resistance and dynamic compliance. Percentage increase over baseline (water) in response to nebulised methacholine was calculated.
Specifically, allergic mice were treated with a commercially available (Ambion) in-vitro validated small interfering (si)RNA directed against Midline-1 (SEQ ID NO:3) (MID1 siRNA) or a scrambled nonsense siRNA (control) following previously established protocols. BALB/c mice were anesthetised with isoflurane before being sensitised with the intranasal administration of either 50 μg House Dust Mite antigen (HDM) in 50 μl of sterile saline or 50 μl of sterile saline in control groups. This sensitisation was repeated at days 1 and 2 following initial sensitisation. On day 14 following initial sensitisation the mice were again anesthetised with isoflurane before receiving intranasal challenge with 5 μg of HDM in […] of sterile water. This challenge dosage was repeated daily from day 14 through 17. Mice received intranasal administration of maked Mid-1 siRNA or scramble control in 25 μl of saline under isoflurane anaesthesia on days 13, 15 and 17, through the period of HDM challenge. On day 18, 24 hrs after the final HDM challenge, the mice were sacrificed with an excess dose of sodium pentobarbitone administered intraperitoneally (200 μl total volume).

[12] = HDM-allergic and challenged mice

T1 sequence (P67775 whole entry): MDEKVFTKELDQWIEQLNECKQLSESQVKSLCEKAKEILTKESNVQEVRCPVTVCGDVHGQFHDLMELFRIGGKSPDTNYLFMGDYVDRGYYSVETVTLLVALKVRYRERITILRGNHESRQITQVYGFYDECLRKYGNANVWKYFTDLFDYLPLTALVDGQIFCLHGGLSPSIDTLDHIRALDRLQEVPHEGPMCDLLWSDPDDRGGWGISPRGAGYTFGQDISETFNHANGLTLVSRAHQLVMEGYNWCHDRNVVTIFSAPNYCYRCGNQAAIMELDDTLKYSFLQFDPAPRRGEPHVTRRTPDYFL
T1 sequence (P30153 whole entry partner): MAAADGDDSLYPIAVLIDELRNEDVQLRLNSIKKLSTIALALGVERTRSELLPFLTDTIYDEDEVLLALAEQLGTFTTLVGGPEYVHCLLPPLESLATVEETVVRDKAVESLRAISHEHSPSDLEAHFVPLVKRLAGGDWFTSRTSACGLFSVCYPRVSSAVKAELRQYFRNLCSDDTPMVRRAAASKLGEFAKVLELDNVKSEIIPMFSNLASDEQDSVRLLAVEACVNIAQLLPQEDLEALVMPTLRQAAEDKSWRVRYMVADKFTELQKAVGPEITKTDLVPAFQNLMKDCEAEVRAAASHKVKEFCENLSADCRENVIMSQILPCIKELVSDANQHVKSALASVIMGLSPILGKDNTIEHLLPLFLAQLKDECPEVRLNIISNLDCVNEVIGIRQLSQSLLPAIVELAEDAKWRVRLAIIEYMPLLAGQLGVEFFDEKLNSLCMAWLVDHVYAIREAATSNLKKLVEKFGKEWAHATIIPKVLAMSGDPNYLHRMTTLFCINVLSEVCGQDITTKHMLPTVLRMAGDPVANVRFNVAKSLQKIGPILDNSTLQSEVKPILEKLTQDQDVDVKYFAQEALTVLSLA
PP2A (Mus musculus, UniProt P63330), sequence (P63330 whole entry): as the sequence (P67775 whole entry) above, with V5L counted along it
PP2A (Mus musculus, UniProt P63330), sequence (Q76MZ3 whole entry partner): as the sequence (P30153 whole entry partner) above, with S324T counted along it
sphingosine kinase 2, sequence (Q9NRA0 whole entry, species assumed): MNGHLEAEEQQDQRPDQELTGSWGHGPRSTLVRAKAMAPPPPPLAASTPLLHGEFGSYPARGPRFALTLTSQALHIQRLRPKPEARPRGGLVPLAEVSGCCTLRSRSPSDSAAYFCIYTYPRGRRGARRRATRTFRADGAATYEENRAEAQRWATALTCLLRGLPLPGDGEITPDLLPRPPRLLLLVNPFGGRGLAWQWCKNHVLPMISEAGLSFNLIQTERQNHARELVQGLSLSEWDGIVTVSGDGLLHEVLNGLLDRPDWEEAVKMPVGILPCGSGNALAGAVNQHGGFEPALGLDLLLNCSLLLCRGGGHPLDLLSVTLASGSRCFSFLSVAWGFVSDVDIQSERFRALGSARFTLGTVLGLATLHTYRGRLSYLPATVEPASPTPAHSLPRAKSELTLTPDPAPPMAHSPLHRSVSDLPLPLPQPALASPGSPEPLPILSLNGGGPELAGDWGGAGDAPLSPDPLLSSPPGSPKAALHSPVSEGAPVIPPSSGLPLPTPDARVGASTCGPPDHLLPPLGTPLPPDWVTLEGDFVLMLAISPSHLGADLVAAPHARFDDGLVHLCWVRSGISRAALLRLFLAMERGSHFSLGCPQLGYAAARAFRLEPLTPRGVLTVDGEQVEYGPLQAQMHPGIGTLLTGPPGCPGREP

SMILES	airways inflammation ([1]; HDM-sensitized and challenged mice, treatment during allergen challenge)	CCL20 release (levels in lung homogenates) [2]	lung function (forced vital capacity and forced expiratory volume in 100 milliseconds) [3]	airways fibrosis (collagen deposition surrounding the airways) ([3]; wildtype BALB/c mice)	lymphopenia [4]	Th2 cytokine release in allergen-stimulated peribronchial lymphnode cultures [5]	phosphorylation by sphingosine kinase 2 [6]	binding to sphingosine-1-phosphate receptors [7]	PP2A activity in the lungs [8]	PP2A activity (phosphatase activity on synthetic substrate) [9]	collagen deposition in airways [10]	airways hyperresponsiveness (total lung resistance in response to inhaled methacholine) [11]	eosinophils (BALF) [1, 12]	lymphocytes (BALF) [1, 12]	neutrophils (BALF) [1, 12]
CCCCCCCOc1ccc(CCC(C)(N)CO)cc1 [AAL(S), 2-amino-4-(4-heptyloyphenol)-2-methylbutanol]	precluded the development	reduced	improved	protected	does not cause lymphopenia	reduced	cannot be phosphorylated	does not bind	reactivates PP2A in the lungs	fully restored	protected	precluded the development			
CCCCCCCCc1ccc(CCC(N)(CO)CO)cc1 [FTY720]		reduced										reduced	reduced	reduced	reduced
CCCCCCCCc1ccc(CCC(N)(CO)COP(=O)(O)O)cc1 (stereo not drawn) [pFTY720]												partial reduction	partial reduction		partial reduction
CC(C)(C)NCC(O)c1ccc(O)c(CO)c1 (stereo not drawn) [salbutamol]										restore PP2A activity to a significant level					
